Read-outs that look alike come from different tables or passages of the source.
Target: T1, Aβ oligomers (Homo sapiens, UniProt P05067)
T1 construct: Ser^26 depsipeptide iso-Aβ (1–42) was used; made in house; host or cells: chemical peptide synthesis (no expression host)
Assay: Isothermal titration calorimetry (ITC) binding to Aβ oligomers
Settings: PBS pH 7.4, 285 K; for Kd: Aβ 100 µM in cell, ligand 250 µM in syringe, two independent site model
Experimental: The binding affinities of 2b–2i to Aβ oligomers were tested in ITC experiments.
In this work, Ser^26 depsipeptide iso-Aβ (1–42) was used, which was synthesized and purified as described previously. The lyophilized iso-Aβ (1–42) was dissolved in MilliQ water to a concentration of 1 mg mL^−1, sonicated for 3 min and the pH was set to 7.0 to initiate an O to N acyl migration, whereby the native sequence can be readily formed. The sample was incubated at room temperature for 10 min. Then the pH was set to 11 and the sample was kept at room temperature for additional 2 h. After the incubation, the Aβ stock solution was aliquoted and stored at −20 °C until use. To obtain Aβ oligomers, the 1 mg mL^−1 aliquot was diluted to a final concentration of 50 μM with 26.67 mM PBS and the pH was set to 7.4 with 1 M HCl. The sample was incubated at 37 °C for 3 h.
Isothermal calorimetric titrations were performed with a Microcal VP-ITC microcalorimeter in pH 7.4 PBS buffer solution. In individual titrations, 10 µL portions of the ligand containing solution were repeatedly injected from the computer-controlled 300-µL microsyringe at intervals of 300 s into the Aβ oligomer solution prepared in the same buffer as the ligand. All measurements were carried out at 285 K. The Aβ concentration in the cell was 100 µM and the total ligand concentration was 250 µM in the syringe and the titration was stopped when the precipitation of the Aβ aggregates became excessive. Control experiments were performed by injecting the ligand into a cell containing buffer with no target, and the heats of dilution were subtracted from those measured in the presence of Aβ. The experimental data were fitted to the two independent site binding models by using a nonlinear least-squares procedure, with ΔHb, ΔHb’, Kd, Kd’ ([…]), n and n’ (number of binding sites for monomer), as adjustable parameters.

[1] = KD, first binding stage, Table 2
[2] = KD, second binding stage, Table 2
[3] = Table 2, ITC, first binding stage
[4] = Table 2, ITC, second binding stage

T1 sequence (P05067 672-713 limits assumed): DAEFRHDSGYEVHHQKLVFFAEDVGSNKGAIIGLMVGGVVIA

## N=C(N)NCCC[C@@H](CC(=O)N[C@H]1CCCC[C@@H]1C(=O)N[C@H]1CCCC[C@@H]1C(=O)N[C@@H](CC(=O)O)CC(=O)N[C@H]1CCCC[C@@H]1C(=O)NCC(=O)NCC(=O)N[C@@H](CSC1CC(=O)N(CCC(=O)NCCCC[C@H](NC(=O)CCN2C(=O)CC(SC[C@H](NC(=O)CNC(=O)CNC(=O)[C@H]3CCCC[C@@H]3NC(=O)C[C@H](CC(=O)O)NC(=O)[C@H]3CCCC[C@@H]3NC(=O)[C@H]3CCCC[C@@H]3NC(=O)C[C@H](CCCNC(=N)N)NC(=O)[C@H]3CCCC[C@@H]3N)C(N)=O)C2=O)C(=O)NCCCC[C@H](NC(=O)[C@H](CCCCNC(=O)CCN2C(=O)CC(SC[C@H](NC(=O)CNC(=O)CNC(=O)[C@H]3CCCC[C@@H]3NC(=O)C[C@H](CC(=O)O)NC(=O)[C@H]3CCCC[C@@H]3NC(=O)[C@H]3CCCC[C@@H]3NC(=O)C[C@H](CCCNC(=N)N)NC(=O)[C@H]3CCCC[C@@H]3N)C(N)=O)C2=O)NC(=O)CCN2C(=O)CC(SC[C@H](NC(=O)CNC(=O)CNC(=O)[C@H]3CCCC[C@@H]3NC(=O)C[C@H](CC(=O)O)NC(=O)[C@H]3CCCC[C@@H]3NC(=O)[C@H]3CCCC[C@@H]3NC(=O)C[C@H](CCCNC(=N)N)NC(=O)[C@H]3CCCC[C@@H]3N)C(N)=O)C2=O)C(=O)NCC(N)=O)C1=O)C(N)=O)NC(=O)[C@H]1CCCC[C@@H]1N (stereo partly drawn) [Compound 7]
[1]
  Kd: 16.2 ± 8.9 nM
[2]
  Kd: 128 ± 56.7 nM

## CC1(C)[C@H]2C[C@H](NC(=O)C[C@H](CCCNC(=N)N)NC(=O)[C@H]3CCCC[C@@H]3N)[C@@H](C(=O)N[C@H]3CCCC[C@@H]3C(=O)N[C@@H](CC(=O)O)CC(=O)N[C@H]3CCCC[C@@H]3C(=O)NCC(=O)NCC(=O)N[C@@H](CSC3CC(=O)N(CCC(=O)NCCCC[C@H](NC(=O)CCN4C(=O)CC(SC[C@H](NC(=O)CNC(=O)CNC(=O)[C@H]5CCCC[C@@H]5NC(=O)C[C@H](CC(=O)O)NC(=O)[C@H]5CCCC[C@@H]5NC(=O)[C@@H]5[C@@H](NC(=O)C[C@H](CCCNC(=N)N)NC(=O)[C@H]6CCCC[C@@H]6N)C[C@H]6C[C@@H]5C6(C)C)C(N)=O)C4=O)C(=O)NCCCC[C@H](NC(=O)[C@H](CCCCNC(=O)CCN4C(=O)CC(SC[C@H](NC(=O)CNC(=O)CNC(=O)[C@H]5CCCC[C@@H]5NC(=O)C[C@H](CC(=O)O)NC(=O)[C@H]5CCCC[C@@H]5NC(=O)[C@@H]5[C@@H](NC(=O)C[C@H](CCCNC(=N)N)NC(=O)[C@H]6CCCC[C@@H]6N)C[C@H]6C[C@@H]5C6(C)C)C(N)=O)C4=O)NC(=O)CCN4C(=O)CC(SC[C@H](NC(=O)CNC(=O)CNC(=O)[C@H]5CCCC[C@@H]5NC(=O)C[C@H](CC(=O)O)NC(=O)[C@H]5CCCC[C@@H]5NC(=O)[C@@H]5[C@@H](NC(=O)C[C@H](CCCNC(=N)N)NC(=O)[C@H]6CCCC[C@@H]6N)C[C@H]6C[C@@H]5C6(C)C)C(N)=O)C4=O)C(=O)N[C@@H](CCCCNC(=O)CCCC[C@@H]4SC[C@@H]5NC(=O)N[C@@H]54)C(N)=O)C3=O)C(N)=O)[C@@H]1C2 (stereo partly drawn) [Compound 2g]
KD ITC, first binding stage, Table 1
  Kd: 34.1 ± 10 nM
KD ITC, second binding stage, Table 1
  Kd: 652 ± 158 nM

## N=C(N)NCCC[C@@H](CC(=O)N[C@H]1CCCC[C@@H]1C(=O)N[C@H]1CCCC[C@@H]1C(=O)N[C@@H](CC(=O)O)CC(=O)N[C@H]1CCCC[C@@H]1C(=O)NCC(=O)NCC(=O)N[C@@H](CSSC[C@H](NC(=O)CNC(=O)CNC(=O)[C@H]1CCCC[C@@H]1NC(=O)C[C@H](CC(=O)O)NC(=O)[C@H]1CCCC[C@@H]1NC(=O)[C@H]1CCCC[C@@H]1NC(=O)C[C@H](CCCNC(=N)N)NC(=O)[C@H]1CCCC[C@@H]1NC(=O)CCC(=O)NCCOCCOCCNC(=O)[C@H]1CCCC[C@@H]1NC(=O)C[C@H](CC(=O)O)NC(=O)[C@H]1CCCC[C@@H]1NC(=O)[C@H]1CCCC[C@@H]1NC(=O)C[C@H](CCCNC(=N)N)NC(=O)[C@H]1CCCC[C@@H]1N)C(N)=O)C(N)=O)NC(=O)[C@H]1CCCC[C@@H]1NC(=O)CCC(=O)NCCOCCOCCNC(=O)[C@H]1CCCC[C@@H]1NC(=O)C[C@H](CC(=O)O)NC(=O)[C@H]1CCCC[C@@H]1NC(=O)[C@H]1CCCC[C@@H]1NC(=O)C[C@H](CCCNC(=N)N)NC(=O)[C@H]1CCCC[C@@H]1N [Compound 9]
[3]
  ΔG, first binding stage: -9.83 kcal/M
  ΔH, first binding stage: 6.01 kcal/M
[4]
  ΔG, second binding stage: -8.48 kcal/M
  ΔH, second binding stage: 1.18 kcal/M

## N=C(N)NCCC[C@@H](CC(=O)N[C@H]1CCCC[C@@H]1C(=O)N[C@H]1CCCC[C@@H]1C(=O)N[C@@H](CC(=O)O)CC(=O)N[C@H]1CCCC[C@@H]1C(=O)NCC(=O)NCC(=O)N[C@@H](CSC1CC(=O)N(CCC(=O)NCCNC(=O)CCN(CCC(=O)NCCNC(=O)CCN2C(=O)CC(SC[C@H](NC(=O)CNC(=O)CNC(=O)[C@H]3CCCC[C@@H]3NC(=O)C[C@H](CC(=O)O)NC(=O)[C@H]3CCCC[C@@H]3NC(=O)[C@H]3CCCC[C@@H]3NC(=O)C[C@H](CCCNC(=N)N)NC(=O)[C@H]3CCCC[C@@H]3N)C(N)=O)C2=O)CCN(CCC(=O)NCCNC(=O)CCN2C(=O)CC(SC[C@H](NC(=O)CNC(=O)CNC(=O)[C@H]3CCCC[C@@H]3NC(=O)C[C@H](CC(=O)O)NC(=O)[C@H]3CCCC[C@@H]3NC(=O)[C@H]3CCCC[C@@H]3NC(=O)C[C@H](CCCNC(=N)N)NC(=O)[C@H]3CCCC[C@@H]3N)C(N)=O)C2=O)CCC(=O)NCCNC(=O)CCN2C(=O)CC(SC[C@H](NC(=O)CNC(=O)CNC(=O)[C@H]3CCCC[C@@H]3NC(=O)C[C@H](CC(=O)O)NC(=O)[C@H]3CCCC[C@@H]3NC(=O)[C@H]3CCCC[C@@H]3NC(=O)C[C@H](CCCNC(=N)N)NC(=O)[C@H]3CCCC[C@@H]3N)C(N)=O)C2=O)C1=O)C(N)=O)NC(=O)[C@H]1CCCC[C@@H]1N (stereo partly drawn) [Compound 5]
[1]
  Kd: 6.9 ± 1.4 nM
[2]
  Kd: 281 ± 38.7 nM

## N=C(N)NCCC[C@@H](CC(=O)N[C@H]1CCCC[C@@H]1C(=O)N[C@H]1CCCC[C@@H]1C(=O)N[C@@H](CC(=O)O)CC(=O)N[C@H]1CCCC[C@@H]1C(=O)NCC(=O)NCC(=O)N[C@@H](CSC1CC(=O)N(CCC(=O)NCCCCC(=O)NCCN(CCNC(=O)CCCCNC(=O)CCN2C(=O)CC(SC[C@H](NC(=O)CNC(=O)CNC(=O)[C@H]3CCCC[C@@H]3NC(=O)C[C@H](CC(=O)O)NC(=O)[C@H]3CCCC[C@@H]3NC(=O)[C@H]3CCCC[C@@H]3NC(=O)C[C@H](CCCNC(=N)N)NC(=O)[C@H]3CCCC[C@@H]3N)C(N)=O)C2=O)CCNC(=O)CCCCNC(=O)CCN2C(=O)CC(SC[C@H](NC(=O)CNC(=O)CNC(=O)[C@H]3CCCC[C@@H]3NC(=O)C[C@H](CC(=O)O)NC(=O)[C@H]3CCCC[C@@H]3NC(=O)[C@H]3CCCC[C@@H]3NC(=O)C[C@H](CCCNC(=N)N)NC(=O)[C@H]3CCCC[C@@H]3N)C(N)=O)C2=O)C1=O)C(N)=O)NC(=O)[C@H]1CCCC[C@@H]1N (stereo partly drawn) [Compound 4]
Table 2, first binding stage, read-out: KD, first binding stage
  Kd: 18.5 ± 13.9 nM
Table 2, second binding stage, read-out: KD, second binding stage
  Kd: 155 ± 131 nM

— article PMC6222781, “Structural Optimization of Foldamer-Dendrimer Conjugates as Multivalent Agents against the Toxic Effects of Amyloid Beta Oligomers” (Molecules : A Journal of Synthetic Chemistry and Natural …, 2018)
